In ChEMBL document CHEMBL5576096, “Triplinones A-H: Anti-Inflammatory Arylalkenyl α,β-Unsaturated-δ-Lactones Isolated from the Leaves of Australian Rainforest Plant Cryptocarya triplinervis (Lauraceae)” (J Nat Prod, 2024):

Tests used:
[1] = Cytotoxicity against LPS/IFNgamma-stimulated mouse RAW264.7 cells assessed as reduction in cell viability after 24 hrs by Alamar Blue assay; type: toxicity, cell-based; details: LPS/IFNgamma-stimulated RAW264.7 cells, read-out: LC50
[2] = tested on: RAW264.7; assay: Inhibition of NO production in LPS/IFNgamma-stimulated mouse RAW264.7 cells preincubated for 1 hr followed by LPS/IFNgamma addition and measured after 24 hrs by griess reagent based assay; type: functional, cell-based
[3] = Inhibition of TNF-alpha production in LPS/IFNgamma-stimulated mouse RAW264.7 cells preincubated for 1 hr followed by LPS/IFNgamma addition and measured after 24 hrs by ELISA; type: functional, cell-based
[4] = Therapeutic index, ratio of LC50 for cytotoxicity against LPS/IFNgamma-stimulated mouse RAW264.7 cells to IC50 for inhibition of NO production in LPS/IFNgamma-stimulated mouse RAW264.7 cells; type: toxicity, cell-based; details: LPS/IFNgamma-stimulated RAW264.7 cells, read-out: Ratio LC50/IC50

Row | Structure (SMILES) | CC50 at 24 h [1] [µM] | IC50 [2] [µM] | IC50 [3] [µM] | selectivity ratio [4]
1 | O=C1C=CC[C@H](/C=C/C=C/C[C@H](O)C[C@@H](O)CC/C=C/c2ccccc2)O1 | 41.3 | 5.4 | 27.9 | 7.6
2 | O=C1C=CC[C@H](CC(O)/C=C/C[C@H](O)C[C@@H](O)CC/C=C/c2ccccc2)O1 (stereo partly specified) | 159 | 64.7 | 39.1 | 2.5
3 | COc1cc(/C=C/C(=O)CC(=O)/C=C/c2ccc(O)c(OC)c2)ccc1O [CURCUMIN] | 73 | 22.5 | 31.2 | 3.2
4 | CC(=O)O[C@H](C[C@@H](O)CC/C=C/c1ccccc1)C[C@H]1CC=CC(=O)O1 | 97.9 | 10.3 | 17.1 | 9.5
5 | O=C1C=CC[C@H](C[C@H](O)C[C@@H](O)CC/C=C/c2ccccc2)O1 | 37.6 | 5.6 | 29.4 | 6.8
6 | O=C1C=CC[C@H](/C=C/C[C@H](O)C[C@@H](O)CC/C=C/c2ccccc2)O1 | 79.8 | 7.3 | 28.3 | 10.9
7 | O=C1C=CC[C@H](CCC[C@H](O)C[C@@H](O)CC/C=C/c2ccccc2)O1 | 33.4 | 6 | 27.4 | 5.6
8 | O=C1C=CC[C@H](C[C@@H](O)C[C@H](O)C[C@@H](O)CC/C=C/c2ccccc2)O1 | > 278 | 102 | > 278 | > 2.7
9 | O=C1C=CC[C@H](C[C@@H](O)CCC[C@H](O)C[C@@H](O)CC/C=C/c2ccccc2)O1 | 41.3 | 15 | 28.9 | 2.8
